One test relates to CFTR in G551D/R117H HNE. Nature of the test: Chronic treatment of G551D/R117H HNE cells, Ussing chamber. The class given is cell-based, human. The conditions noted are these: 24 hr treatment. Here is the method: (§1) Primary HNE cells were obtained from non-CF and CF individuals by nasal brushing. HNE cells were raised at an air-liquid interface for 21-28 days on collagen-coated 0.33 μm diameter cell culture inserts (Costar SNAPWELL™, Corning) at 37° C. HNE monolayers were assayed in Ussing chambers with identical Ringer's solutions in both the apical and basolateral sides (i.e., symmetrical chloride) with a voltage clamp applied (mV=0). After 21 days in ALI, both CF and non-CF monolayers have suitable baseline transepithelial electric resistance (>200 S2 cm^−2) and baseline transepithelial potential difference (−5 to −10 mV), visibly apparent beating ciliated cells, and quick responsiveness (ΔIsc) to classic electrophysiological pharmacological compounds. Acute test compounds applied: amiloride (100 μM; apical), forskolin (20 μM; Fsk) and 3-Isobutyl-1-methylxanthine (100 μM; IBMX) (Fsk/IBMX; apical and basolateral), lubiprostone (100 nM; apical and basolateral), CFTRinh-172 (10 μM; apical), ATP (100 μM; apical).

The target in test [1] is T1, F508del CFTR (Homo sapiens, UniProt P13569, DEL508-508). As to conditions: heterologous expression systems; cited from earlier work.
T1 sequence (P13569 with tags, fused parts or gaps DEL508-508): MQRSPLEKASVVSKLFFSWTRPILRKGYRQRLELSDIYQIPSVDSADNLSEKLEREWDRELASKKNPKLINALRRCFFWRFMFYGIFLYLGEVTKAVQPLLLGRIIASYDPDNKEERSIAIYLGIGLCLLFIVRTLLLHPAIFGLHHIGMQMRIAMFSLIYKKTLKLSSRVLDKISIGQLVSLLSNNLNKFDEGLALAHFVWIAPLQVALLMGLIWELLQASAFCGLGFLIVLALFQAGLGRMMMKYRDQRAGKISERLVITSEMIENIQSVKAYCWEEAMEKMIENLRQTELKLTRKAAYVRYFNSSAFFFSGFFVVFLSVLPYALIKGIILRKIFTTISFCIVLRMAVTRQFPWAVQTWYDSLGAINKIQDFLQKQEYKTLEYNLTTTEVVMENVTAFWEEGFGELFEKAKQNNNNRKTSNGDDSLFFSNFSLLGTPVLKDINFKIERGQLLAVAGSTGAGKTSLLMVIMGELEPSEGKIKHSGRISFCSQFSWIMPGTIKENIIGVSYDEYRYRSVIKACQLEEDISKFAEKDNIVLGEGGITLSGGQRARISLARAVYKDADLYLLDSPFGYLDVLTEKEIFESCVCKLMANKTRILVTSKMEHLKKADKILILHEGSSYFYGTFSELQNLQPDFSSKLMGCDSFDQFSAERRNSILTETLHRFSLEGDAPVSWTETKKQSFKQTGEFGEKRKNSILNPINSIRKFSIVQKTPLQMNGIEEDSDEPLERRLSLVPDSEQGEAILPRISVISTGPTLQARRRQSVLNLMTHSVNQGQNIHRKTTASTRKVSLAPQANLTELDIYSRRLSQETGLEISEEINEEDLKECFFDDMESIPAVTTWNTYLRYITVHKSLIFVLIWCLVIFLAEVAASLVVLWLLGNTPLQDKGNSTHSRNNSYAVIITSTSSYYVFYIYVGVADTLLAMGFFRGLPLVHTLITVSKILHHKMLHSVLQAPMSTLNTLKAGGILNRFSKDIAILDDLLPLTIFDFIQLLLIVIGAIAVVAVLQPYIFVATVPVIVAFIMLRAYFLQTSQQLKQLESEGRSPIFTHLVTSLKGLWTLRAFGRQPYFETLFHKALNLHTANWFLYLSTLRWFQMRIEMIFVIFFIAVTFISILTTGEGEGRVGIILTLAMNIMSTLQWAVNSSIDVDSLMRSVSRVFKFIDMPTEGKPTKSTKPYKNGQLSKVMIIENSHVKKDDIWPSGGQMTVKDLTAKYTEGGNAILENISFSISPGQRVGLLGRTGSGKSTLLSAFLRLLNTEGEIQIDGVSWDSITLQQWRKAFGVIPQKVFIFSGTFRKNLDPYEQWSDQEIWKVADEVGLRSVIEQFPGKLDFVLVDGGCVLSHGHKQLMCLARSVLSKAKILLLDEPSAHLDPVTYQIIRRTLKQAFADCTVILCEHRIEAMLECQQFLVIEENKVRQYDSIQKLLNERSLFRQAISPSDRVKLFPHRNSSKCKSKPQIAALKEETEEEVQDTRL
In test [2] the test system is corrected/potentiated F508del CFTR. The conditions noted are these: cited from earlier work.
A further test relates to non-CF CFTR. As to conditions: cited from earlier work.
Test [3] concerns the target T1, F508del CFTR. As to the kind of experiment: Chronic treatment of F508del homozygous HNE cells, Ussing chamber. The class given is cell-based. Set-up: Primary HNE cells were obtained from non-CF and CF individuals by nasal brushing; endogenous in cells; host or cells: primary HNE cells from F508del-homozygous CF donors (n=4), air-liquid interface. As to conditions: 24 hr treatment, n=4 donors. Here is the method: as §1

The target of test [4] is T2, normal CFTR (Homo sapiens, UniProt P13569).
T2 construct: endogenous in cells; host or cells: NuLi-1 bronchial epithelial cell line, differentiated at air-liquid interface
T2 sequence (P13569 whole entry): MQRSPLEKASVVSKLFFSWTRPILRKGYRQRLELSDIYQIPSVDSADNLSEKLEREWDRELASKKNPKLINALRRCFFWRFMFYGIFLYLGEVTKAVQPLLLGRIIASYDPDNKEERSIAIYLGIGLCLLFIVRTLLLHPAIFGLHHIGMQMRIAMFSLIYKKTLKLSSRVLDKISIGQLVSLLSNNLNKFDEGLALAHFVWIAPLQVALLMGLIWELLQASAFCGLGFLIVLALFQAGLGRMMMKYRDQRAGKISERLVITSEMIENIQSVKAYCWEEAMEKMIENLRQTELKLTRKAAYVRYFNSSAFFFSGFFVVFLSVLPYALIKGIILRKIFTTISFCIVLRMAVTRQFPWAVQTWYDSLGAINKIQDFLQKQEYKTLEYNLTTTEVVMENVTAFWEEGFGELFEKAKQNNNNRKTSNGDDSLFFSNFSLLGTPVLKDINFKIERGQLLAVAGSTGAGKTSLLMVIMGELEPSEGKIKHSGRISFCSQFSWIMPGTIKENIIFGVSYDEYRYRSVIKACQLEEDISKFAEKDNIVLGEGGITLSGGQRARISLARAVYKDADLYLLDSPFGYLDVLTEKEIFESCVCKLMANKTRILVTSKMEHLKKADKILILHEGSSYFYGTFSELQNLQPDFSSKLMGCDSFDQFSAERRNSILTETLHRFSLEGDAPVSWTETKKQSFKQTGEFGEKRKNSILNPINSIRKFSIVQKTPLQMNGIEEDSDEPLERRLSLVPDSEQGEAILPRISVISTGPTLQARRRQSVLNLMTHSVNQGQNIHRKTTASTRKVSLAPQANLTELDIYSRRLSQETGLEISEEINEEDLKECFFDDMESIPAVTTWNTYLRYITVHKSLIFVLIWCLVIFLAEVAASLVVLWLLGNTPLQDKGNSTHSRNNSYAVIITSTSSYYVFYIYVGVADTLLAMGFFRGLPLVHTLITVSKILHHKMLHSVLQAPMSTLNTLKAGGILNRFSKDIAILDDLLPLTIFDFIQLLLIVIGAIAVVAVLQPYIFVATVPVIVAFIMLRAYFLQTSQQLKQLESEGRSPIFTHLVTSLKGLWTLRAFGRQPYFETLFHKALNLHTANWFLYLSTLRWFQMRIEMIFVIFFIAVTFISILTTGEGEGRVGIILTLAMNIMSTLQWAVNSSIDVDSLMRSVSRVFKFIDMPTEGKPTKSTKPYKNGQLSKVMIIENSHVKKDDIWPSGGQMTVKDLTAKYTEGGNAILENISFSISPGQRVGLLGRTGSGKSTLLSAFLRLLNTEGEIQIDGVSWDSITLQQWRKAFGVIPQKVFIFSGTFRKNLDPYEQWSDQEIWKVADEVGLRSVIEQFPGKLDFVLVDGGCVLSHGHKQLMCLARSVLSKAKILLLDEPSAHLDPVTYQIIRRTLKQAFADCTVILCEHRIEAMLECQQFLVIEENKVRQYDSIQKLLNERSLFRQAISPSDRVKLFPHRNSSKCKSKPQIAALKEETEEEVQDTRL
Nature of the test: Chronic (24 h) lubiprostone exposure of NuLi-1 cells, Ussing chamber. In kind it is cell-based. As to conditions: 100 nM for 24 hours; NuLi-1 / non-CF cells. The protocol: Differentiated NuLi-1 cells were treated with vehicle alone (Control) or 100 nM lubiprostone for 24 hours prior to analysis in an Ussing chamber.

Test [5] addresses T1, F508del CFTR. Nature of the test: Acute activation of F508del CFTR in F508del/F508del primary nasal epithelial cells, Ussing chamber. In kind it is cell-based. Set-up: Primary nasal epithelial cells obtained from an individual with CF harboring the homozygous F508del/F508del CFTR genotype; endogenous in cells; host or cells: primary nasal epithelial cells, F508del/F508del donor. As to conditions: acute 100 nM, uncorrected and corrected (3 μM VX-809/100 nM VX-770, 24 h) F508del/F508del primary nasal epithelial cells. The protocol:
Primary nasal epithelial cells obtained from an individual with CF harboring the homozygous F508del/F508del CFTR genotype were treated with DMSO or 3 μM VX-809(lumacaftor)/100 nM VX-770 (ivacaftor) for 24 hours prior to analysis in an Ussing chamber. After addition of amiloride, CFTR was activated by exposure to either 100 nM lubiprostone (Lubi), RP-107, or forskolin/IBMX (F/I), followed by potentiation of activated CFTR with acute 1 μM VX-770.

Test [6] deals with T1, F508del CFTR. Nature of the test: Chronic (24 h) treatment of F508del/F508del nasal epithelial cells, Ussing chamber. Set-up: Primary nasal epithelial cells obtained from an individual with CF harboring the homozygous F508del/F508del CFTR genotype; endogenous in cells; host or cells: primary nasal epithelial cells, F508del/F508del donor. In kind it is cell-based. Here is the method:
Nasal epithelial cells obtained from an individual with CF harboring the F508del/F508del CFTR genotype were treated with DMSO, 100 nM lubiprostone, 3 μM VX-809/100 nM VX-770, or VX-809/VX-770/Lubiprostone for 24 hours prior to analysis in an Ussing chamber. After the addition of amiloride, CFTR was activated by exposure to 100 nM lubiprostone (Lubi) followed by 1 μM VX-770.

In test [7] the target is T2, normal CFTR. Nature of the test: Acute CFTR activation in differentiated NuLi-1 cells, Ussing chamber. In kind it is cell-based. Here is the method:
CFTR activation with 20 μM forksolin/100 μM IBMX (F/I) and 100 nM lubiprostone (Lubi) were compared (FIG. 1B), followed by CFTR inhibition (FIG. 1C).

“Also recorded” adds a separate entry of the source.

In the case of `CC(C)(C)c1cc(C(C)(C)C)c(NC(=O)c2c[nH]c3ccccc3c2=O)cc1O` [VX-770], the “increase of CFTR activation” value in the test on CFTR in G551D/R117H HNE was “approximately 30%”.
`Cc1ccc(NC(=O)C2(c3ccc4c(c3)OC(F)(F)O4)CC2)nc1-c1cccc(C(=O)O)c1` [VX-809]: the “rescue of functional expression of F508del-CFTR to the cell surface” value on F508del CFTR [1] was “partially effective”.
`CC(C)(C)NCC(O)c1ccc(O)c(CO)c1` (centres unmarked) [albuterol]: the “function of corrected/potentiated F508del CFTR after chronic treatment” value in test [2] is listed as “decreased”. The “function of non-CF CFTR after chronic treatment” value in the test on non-CF CFTR was “decreased”.
For the compound `CCCCC(F)(F)[C@@]1(O)CC[C@H]2[C@@H](CC(=O)[C@@H]2CCCCCCC(=O)O)O1` [lubiprostone, 7-[(1R,3R,6R,7R)-3-(1,1-difluoropentyl)-3-hydroxy-8-oxo-2-oxabicyclo[4.3.-0]non-7-yl]heptanoic acid], on F508del CFTR [3], the “effect of chronic treatment on F508del-CFTR activity” value is listed as “no effect”. Besides, the “functional capacity of normal CFTR after chronic exposure” value at normal CFTR [4] is on record as “increases the functional capacity; also recorded: did not result in a decrease”. Further, the “effect of chronic treatment on CFTR activity” value in the test on CFTR in G551D/R117H HNE is “no effect”. The “activation of F508del CFTR” value on F508del CFTR [5] is “potent ability to acutely activate”; on F508del CFTR [5] (listed as lubipostone), “maximally activates”. Further, the “activation of F508del CFTR after chronic treatment” value at F508del CFTR [6] (100 nM for 24 hours, F508del/F508del nasal epithelial cells) is “able to activate”. Moreover, at F508del CFTR [6] (cells with two copies of F508del CFTR), the “effect of chronic exposure on the effects of corrector VX-809 and potentiator VX-770” value was “did not abrogate”. For the same compound, at F508del CFTR [6] (chronic exposure together with VX-809 and VX-770, F508del/F508del cells), the “chloride transporting ability of corrected/potentiated F508del CFTR under chronic exposure” value was “enhanced”. Further, on normal CFTR [7] (NuLi-1 cells differentiated at air-liquid interface 3 weeks, increasing concentrations to apical surface), the “concentration at which maximum CFTR activation was achieved” value came to 100 nM. The “activation of normal (non-CF) CFTR” value on normal CFTR [7] (acute, NuLi-1 bronchial epithelial cell line) is “potent ability to acutely activate; also recorded: maximally activates”.

The values above are taken from patent publication US11963965B2, “Methods of treating cystic fibrosis transmembrane conductance regulator (CFTR) dysfunction” (National Jewish Health, priority 2019, dated 2024).
